Source: patent US6355669B1, “Retinoic acid agonists as preventive and therapeutic agents for nephritis” (Eisai Co., Ltd., priority 1997, dated 2002)

Tests used:
[1] = tested on: mouse allergic cerebrospinal meningitis; settings: Racke et al., J. Immunol., 154, 450-458, 1995; cited from earlier work
[2] = tested on: rat adjuvant arthritis; settings: Brinckerhoff et al., Science 221, 756, 1983; cited from earlier work
[3] = tested on: BALB/c mouse spleen cells; experiment: In vitro production of antibody (total IgG) in LPS-stimulated mouse spleen cells; assay type: cell-based; settings: for Total IgG: LPS 5 μg/ml, 5 days
Experimental: Spleen cells from 7-week-old female BALB/c mouse were cultured at 37° C. in the presence of 5% CO2 for 5 days along with 5 μg/ml lipopolysaccharide (LPS) in RPMI 1640 medium containing 10% fetal bovine serum. After culture, the total amount of IgG in the supernatant was quantified by specific ELISA techniques.

[4] = tested on: human B lymphocytes; settings: literature reports (Apfel 1992; Blomhoff 1992; Fahlman 1995); cited from earlier work
[5] = tested on: mouse B lymphocytes; settings: literature reports (Apfel 1992; Blomhoff 1992; Fahlman 1995); cited from earlier work
[6] = tested on: anti-collagen antibody titer; settings: rat model with collagen arthritis; Kuwabara et al., FEBS Letters 1996; cited from earlier work
[7] = tested on: accelerated Masugi nephritis; experiment: Rat model with accelerated Masugi nephritis (proteins excreted in urine for 24 hours); assay type: in vivo, Sprague-Dawley strain rats; settings: dose 0.3 mg/kg, oral once every day; compared with the control group; 0.3 mg/kg
Experimental: Sprague-Dawley strain rats were immunized by subcutaneously administering rabbit γ-globulin in a dose of 4 mg/rat along with Freund's complete adjuvant into the bottoms of their both hind legs. On the 5th day after the rats were immunized, 1 ml of anti-rat glomerular basement membrane rabbit serum diluted 6- or 8-fold was administered via tail veins into the animals. On the 8th day, the rats were forced to be orally administered 8 ml sterilized water and then placed in a metabolism cage, and their urine was collected for 24 hours during which the animals were allowed neither food nor water. As the indicator of the model with accelerated Masugi nephritis, the amount of proteins excreted in urine for 24 hours was used.
(§1) The medium was administered into the control group.

[8] = tested on: anti-ss DNA antibody; experiment: Mouse model with spontaneous onset of SLE: production of anti-ss DNA antibody; assay type: in vivo, female (NZB×NZW) F1 mice; settings: 0.03 mg/kg oral; after 16 weeks of administration
Experimental: (§2) In this experiment, female (NZB×NZW) F1 mice were used. Administration of each test compound was initiated at the age of 16 weeks, and blood was collected at predetermined intervals from the orbital venous plexus of the animals under anesthesia with ether and examined for anti-DNA (single-stranded chain: ss, double stranded chain: ds) antibody titer in serum. Further, urine was collected and measured for urine protein.
as §1

[9] = tested on: anti-rabbit γ-globulin IgG2a antibody titer; experiment: Rat model producing antibody (anti-rabbit γ-globulin antibody titer in serum, ELISA); assay type: in vivo, Sprague-Dawley strain rats; settings: dose 0.3 mg/kg oral once every day for 14 days; 14th day after immunization
Experimental: Sprague-Dawley strain rats were immunized by subcutaneously administering rabbit γ-globulin in a dose of 4 mg/rat along with Freund's complete adjuvant into the bottoms of their both hind legs. On the 14th day after the rats were immunized, blood was collected from their tail veins and examined for anti-rabbit γ-globulin antibody titer in serum by the ELISA method.
The test compounds A, B, C and D were suspended respectively in 0.5% aqueous methyl cellulose solution and orally administered once every day for 14 days from the day on which the animals were immunized with rabbit γ-globulin. The medium was administered into the control group.

[10] = tested on: anti-ds DNA antibody; experiment: Mouse model with spontaneous onset of SLE: production of anti-ds DNA antibody; assay type: in vivo, female (NZB×NZW) F1 mice; settings: 0.03 mg/kg oral; after 16 weeks of administration
Experimental: as §2, §1

[11] = tested on: albuminuria in (NZB×NZW)F1 mice; experiment: Mouse model with spontaneous onset of SLE: urine protein / onset of albuminuria; assay type: in vivo, female (NZB×NZW) F1 mice; settings: dose 0.03 mg/kg
Text: as §2
The test compounds A, B and D were suspended in 0.5% aqueous methyl cellulose solution and orally administered daily once into the animals for 6 days/week for 18 weeks. The medium was administered into the control group.
The effect of each compound on the onset of albuminuria after 18 weeks of administration (in 34-week-old animals) is shown in Table 2.

[12] = tested on: mouse B lymphocytes; settings: adding RARα antagonist; Apfel 1992; cited from earlier work
[13] = after 18 weeks of administration (34-week-old), 8 animals

SMILES: CC1=C(/C=C/C(C)=C/C=C/C(C)=C/C(=O)Nc2ccc(O)cc2)C(C)(C)CCC1
- neural symptoms of mouse allergic cerebrospinal meningitis [1]: ameliorated

SMILES: CC1=C(/C=C/C(C)=C/C=C/C(C)=C\C(=O)O)C(C)(C)CCC1 [13-cis-retinoic acid]
- neural symptoms of mouse allergic cerebrospinal meningitis [1]: ameliorated
- secondary inflammations in rat adjuvant arthritis [2]: significantly suppressed

SMILES: CC1=C(/C=C/C(C)=C/C=C/C(C)=C/C(=O)O)C(C)(C)CCC1 [All-trans retinoic acid, all-trans-retinoic acid]
- in vitro production of antibody in mice (in words) ([3]; 0.1 and 1 nM all-trans-retinoic acid): inhibited
- Total IgG ([3]; all-trans retinoic acid 0.1 nM with Ro-41-5253 20 nM): 9.8 ng/mL
- Total IgG ([3]; all-trans retinoic acid 0.1 nM with Ro-41-5253 200 nM): 26.4 ng/mL
- Total IgG ([3]; all-trans retinoic acid 0.1 nM with Ro-41-5253 2000 nM): 23.4 ng/mL
- Total IgG ([3]; all-trans retinoic acid 0.1 nM, Ro-41-5253 0 nM): 11.3 ng/mL
- Total IgG ([3]; all-trans retinoic acid 1 nM with Ro-41-5253 20 nM): 6.4 ng/mL
- Total IgG ([3]; all-trans retinoic acid 1 nM with Ro-41-5253 200 nM): 7.2 ng/mL
- Total IgG ([3]; all-trans retinoic acid 1 nM with Ro-41-5253 2000 nM): 21.5 ng/mL
- Total IgG ([3]; all-trans retinoic acid 1 nM, Ro-41-5253 0 nM): 7.3 ng/mL
- polyclonal division of human B lymphocytes [4]: inhibits
- polyclonal division of mouse B lymphocytes [5]: inhibits

SMILES: CC1(C)CCC(C)(C)c2cc(NC(=O)c3ccc(C(=O)O)cc3)ccc21 [Am80]
- production of anti-collagen antibody titer in blood [6]: strongly inhibited

SMILES: Cc1ccc(C)c2oc(-c3ccc(-c4ccc(C(=O)O)cc4)[nH]3)cc12 [Compound A, 4-{2-[5-(4,7-dimethylbenzofuran-2-yl)pyrrolyl]}benzoic acid]
- Degree of Inhibition of Albuminuria (%) [7]: 69.2%
- inhibition of production of anti-ss DNA antibody (in words) [8]: significant inhibition
- effect on anti-rabbit γ-globulin IgG2a antibody titer [9]: showed a tendency to inhibit
- inhibition of production of anti-ds DNA antibody (in words) [10]: significant inhibition
- onset of albuminuria (in words) ([11]; after 18 weeks of administration): inhibited
- Number of animals with Concentration of Urine Protein (mg/ml) <0.3 [11, 13]: 6
- Number of animals with Concentration of Urine Protein (mg/ml) >0.3 [11, 13]: 0
- Number of animals with Concentration of Urine Protein (mg/ml) >1 [11, 13]: 1
- Number of animals with Concentration of Urine Protein (mg/ml) >3 [11, 13]: 1
- Number of animals with Concentration of Urine Protein (mg/ml) >10 [11, 13]: 0

SMILES: CCCCCCCOc1cc2c(cc1/C(C)=C/c1ccc(C(=O)O)cc1)C(C)(C)CCS2(=O)=O [Ro-41-5253]
- Total IgG ([3]; Ro-41-5253 20 nM, all-trans retinoic acid 0 nM): 29.2 ng/mL
- Total IgG ([3]; Ro-41-5253 200 nM, all-trans retinoic acid 0 nM): 30.2 ng/mL
- Total IgG ([3]; Ro-41-5253 2000 nM, all-trans retinoic acid 0 nM): 18.0 ng/mL
- recovery of the inhibitory action of all-trans-retinoic acid on antibody production (in words) ([3]; adding 200 nM and 2000 nM Ro-41-5253): completely recovered
- recovery of the inhibitory action of retinoic acid on differentiation of mouse B lymphocytes [12]: recovered almost perfectly
